In general, EC50 refers to the midpoint of the concentration-response curve. The term IC50 denotes the concentration needed to halve the response being measured.

Consider one compound from article PMC4728427, “Mechanism of allosteric activation of TMEM16A/ANO1 channels by a commonly used chloride channel blocker” (British Journal of Pharmacology, 2016).

The test has as its target T1, Mouse TMEM16A (Mus musculus, UniProt Q8BHY3).
T1 construct: expressed in transfected cells; host or cells: HEK-293T
T1 sequence (Q8BHY3 1-960): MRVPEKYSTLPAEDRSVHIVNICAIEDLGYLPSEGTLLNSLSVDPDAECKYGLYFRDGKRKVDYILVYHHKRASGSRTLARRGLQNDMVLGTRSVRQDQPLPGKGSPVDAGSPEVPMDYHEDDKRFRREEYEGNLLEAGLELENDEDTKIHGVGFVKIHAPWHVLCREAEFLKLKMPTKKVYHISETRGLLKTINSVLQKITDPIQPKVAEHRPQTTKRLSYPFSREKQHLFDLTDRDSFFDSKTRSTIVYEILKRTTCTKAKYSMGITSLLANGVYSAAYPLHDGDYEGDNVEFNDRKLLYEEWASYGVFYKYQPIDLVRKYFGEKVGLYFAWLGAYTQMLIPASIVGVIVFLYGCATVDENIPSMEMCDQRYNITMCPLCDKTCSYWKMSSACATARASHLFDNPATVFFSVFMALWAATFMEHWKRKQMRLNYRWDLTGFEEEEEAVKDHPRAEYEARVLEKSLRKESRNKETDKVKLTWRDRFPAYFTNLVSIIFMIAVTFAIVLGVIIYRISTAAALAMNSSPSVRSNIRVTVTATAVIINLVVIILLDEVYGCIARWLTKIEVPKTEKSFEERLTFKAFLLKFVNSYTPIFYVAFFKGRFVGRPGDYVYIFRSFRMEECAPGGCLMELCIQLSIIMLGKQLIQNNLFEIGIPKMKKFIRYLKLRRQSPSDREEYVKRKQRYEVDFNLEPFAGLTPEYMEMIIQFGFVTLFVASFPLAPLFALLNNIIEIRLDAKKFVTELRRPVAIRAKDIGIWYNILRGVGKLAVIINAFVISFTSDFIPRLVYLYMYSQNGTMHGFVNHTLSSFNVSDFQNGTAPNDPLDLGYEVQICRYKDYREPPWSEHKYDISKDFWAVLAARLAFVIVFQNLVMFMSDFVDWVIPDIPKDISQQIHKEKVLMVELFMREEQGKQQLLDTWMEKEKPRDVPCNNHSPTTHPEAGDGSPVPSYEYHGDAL
The test can be described thus: Whole-cell concentration-jump protocol separating A9C block and activation, 300 nM [Ca2+]i. The test is classed as cell-based. The settings on record: for Ki: read-out: K i(0); for I a/I 0 for activation / fractional inhibition (I b/I 0): 30 μM [A9C]ext, +70 mV; for EC50 / IC50: [A9C]ext; for EC50: read-out: EC50 (b) activation; for IC50: read-out: IC50 (a) inhibition. On the procedure:
TMEM16A currents were measured with the whole‐cell or inside‐out patch configuration of the patch‐clamp technique as detailed in the Supporting Information. The exchange of solutions was achieved by using a local perfusion system consisting of eight tubes of 1.2 mm diameter in which the tip of the patch pipette was inserted. In some experiments, ultra‐rapid (<50 ms) changes in A9C concentration ([A9C]) (‘concentration jumps’) were achieved using a computer‐controlled perfusion system (Warner Instruments, Hamden, CT, USA).
The relationship between [A9C] and TMEM16A current inhibition was obtained by measuring the currents at the end of 250 ms V m steps from +20 to +120 mV in 20 mV increments elicited every 2 s from a holding V m of −70 mV. TMEM16A currents measured in the presence of A9C (I b) were normalized to currents measured in the absence of A9C (I 0) and plotted against [A9C]. The concentration–response curves obtained were fit with the Hill equation of the form: (1) Ib/Io=1/1+A9C/Ki^γ,
where K i is the apparent A9C dissociation constant from the inhibitory site and γ is the coefficient of cooperativity (Hill coefficient).
The dose–response curves for activation by A9C were fitted with a modified Hill equation of the form: (2) Ia/Io=1+Amax−1/1+A9C/Kd^h,
where I a is the current in the presence of A9C, A max is the maximal current activation, K d is the apparent A9C dissociation constant from the activating site and h is the coefficient of cooperativity (Hill coefficient).
The relationships between the K i or K d and V m were fitted with the Woodhull equation (Woodhull, 1973): (3) Kx=Kx0exp−δxzFVm/RT.
The subscript ‘x’ stands for either ‘i’ or ‘d’. Thus, K i(0) or K d(0) are the apparent A9C dissociation constants from the inhibitory or activating site at 0 mV, z is the A9C electric valence (−1), δ i or δ d is the fraction of the V m sensed by A9C when bound to the inhibitory or activating site, F is Faraday's constant, R is the universal gas constant and T is the absolute temperature.
To study the activating effect of extracellular A9C on TMEM16A currents in isolation from A9C‐mediated inhibition, the following stimulation protocol was used. Whole‐cell currents were measured in response to a constant V m of +70 mV and in the presence of 300 nM [Ca^2+]i. Under these recording conditions and in the absence of extracellular A9C, the TMEM16A current remained at a constant amplitude (Figure 5A). When A9C was rapidly applied to the bath solution (concentration jump), the current amplitude rapidly declined before increasing to a new steady‐state level (Figure 5A and 5B). As A9C was removed, a dramatic increase in current was observed followed by a rapid return of the current to the level measured in the absence of A9C (Figure 5A and 5B). […] Rapid washout of A9C led to the fast relief of channel block, while the allosteric activating effect appeared to persist. Thus, the inhibitory effect of A9C was estimated by back‐extrapolating the current amplitude (I b) to the point when the drug was added. The current activation (I a) was measured via back‐extrapolation of the transient current spike observed upon drug washout.
Each cell was exposed to various [A9C]ext, and the extent of blockage at each concentration expressed as I b/I 0. The extent of current activation at each [A9C]ext was assessed as I a/I 0.
To determine if the activating effect of [A9C]ext on the TMEM16A current is V m‐dependent, experiments similar to those described above were performed at constant V m of +10 and +40 mV (Figure 5C). From the average data presented in Figure 5C and Table 2, it can be concluded that both inhibition and activation are V m‐dependent.
As outlined in the previous section, the current inhibition and activation induced by extracellular A9C presented a very similar degree of V m‐dependence. […]

[1] abbreviates: high (154 mM) [Cl−]ext, 300 nM [Ca2+]i.
Where [2] appears, read: low (34 mM) [Cl−]ext, 300 nM [Ca2+]i.

Like-named read-outs stand apart in the source and are kept apart here.

`O=C(O)c1c2ccccc2cc2ccccc12` [A9C, Anthracene‐9‐carboxylic acid]: the Ki (300 nM [Ca2+]i (rounded in Discussion)) was around 8.4 mM. In addition, where the note is “300 nM [Ca2+]i, Woodhull fit”, the δ d worked out at 0.66 ± 0.03 and the δ i was found to be 0.68 ± 0.03. Besides, under “300 nM [Ca2+]i, extracellular A9C, Woodhull fit, read-out: K d(0) (apparent dissociation constant from activating site at 0 mV)”, the Kd was determined as 8.95 ± 0.378 mM. In addition, the Ki (300 nM [Ca2+]i, extracellular A9C, Woodhull fit) came out at 8.37 ± 0.372 mM. In addition, under setting [1], the “I a/I 0 for activation” value stood at 2.0 ± 0.1 and the “fractional inhibition (I b/I 0)” value worked out at 0.70 ± 0.02. In addition, under setting [2], the “I a/I 0 for activation” value stood at 8.2 ± 1.1 and the “fractional inhibition (I b/I 0)” value worked out at 0.46 ± 0.06. Also, where the note is “V m 10 mV, 300 nM [Ca2+]i”, the “h (b) Hill coefficient (activation)” value was 1.1 ± 0.1 (n = 9), the “γ (a) Hill coefficient (inhibition)” value is on record as 0.4 ± 0.1 (n = 9), the EC50 was found to be 5.23 ± 0.582 mM and the IC50 turned out to be 4710 ± 478 µM. Besides, where the note is “V m 40 mV, 300 nM [Ca2+]i”, the “h (b) Hill coefficient (activation)” value is on record as 1.2 ± 0.1 (n = 11), the “γ (a) Hill coefficient (inhibition)” value is listed as 0.4 ± 0.1 (n = 11), the EC50 turned out to be 1.12 ± 0.126 mM and the IC50 turned out to be 849 ± 140 µM. For the same compound, where the note is “V m 70 mV, 300 nM [Ca2+]i”, the “h (b) Hill coefficient (activation)” value is recorded as 1.1 ± 0.1 (n = 11), the “γ (a) Hill coefficient (inhibition)” value is recorded as 0.4 ± 0.1 (n = 11), the EC50 was 0.44 ± 0.069 mM and the IC50 was 171 ± 21 µM. The “electric distance of activating binding site (δ d)” value (Woodhull analysis, rounded) is recorded as ~ 0.6.
